Reference: patent US8318422B2, “Antibacterial treatment of osteoarthritis” (Orthogenics AS, priority 2001, dated 2012)

Key:
collagenase = details: Yu et al. 1991; cited from earlier work
[1] = test system: patients with Osteoarthritis; assay: Clinical study: response to antibiotic treatment as determined by direct questions to the patients; format: in vivo, human; details: following 4 weeks of treatment
Description: (§1) Thirty patients were diagnosed and treated for one month with the antibiotic known generically internationally as Doxycycline, this was purchased as Vibramycin from Pfizer. Samples from synovial fluid were taken before and after treatment. We identified 30 patients that had clinical and radiological signs of Osteoarthritis. These patients were informed and signed a paper according to the instructions from the ethical committee (Northern Norway Health Region 5). During the first visit we took a sample from the synovial fluid. Standard technique, upper lateral portal, using a 10 ml. syringe. […] The samples were immediately put into an icebox and brought to the lab. All the patients were given Vibramycin 100 mg daily for 4 weeks. From the patients where we found the bacteria, we took new synovial-fluid samples using the same technique. Table 3 below show a summary of the response to antibiotic treatment with tetracycline for four weeks as determined by direct questions to the patients on how they felt.

[2] = test system: patients with Osteoarthritis; assay: Clinical study: antibiotic treatment of patients with osteoarthritis, KOOS (Knee Injury and Osteoarthritis Outcome Score); format: in vivo, human; details: 100 mg daily for 4 weeks
Description: as §1, with “5). We used the KOOS (Knee Injury and Osteoarthritis Outcome Score) [Roos et al: Development of a self-administered outcome measure. Journal of Orthopaedic and Sports Physical Therapy 78(2): 88-96, 1998] and the Lysholm score [Ref. […] and Lysholm: Rating systems in the Evaluation of Knee Ligament Injuries. Clinical Orthopaedics an Related Research Number 198 September 1985: 43-49.]” for “5).”, “[…] KOOS: These parameters were analysed. • Symptoms • Activity” for “Table 3 below show a summary”, “daily living • Sport • Quality of daily living • Pain” for “the response to antibiotic treatment with tetracycline for four weeks as determined by direct questions to the patients on how they felt.”

Pseudomonas [3] = details: cited from earlier work
Pseudomonas [4] = details: cited from earlier work; remark: listed apart in the source

Question: What does the source list for `C[C@H]1c2cccc(O)c2C(O)=C2C(=O)[C@]3(O)C(O)=C(C(N)=O)C(=O)[C@@H](N(C)C)[C@@H]3[C@@H](O)[C@@H]21` [Vibramycin, Doxycycline]?
Answer: the patient's collagenase activity (collagenase): inhibit the patient's collagenase activity; symptoms in the majority of patients tested [1]: improved symptoms; clinical scores for the patient (KOOS and Lysholm) [2]: improved all the clinical scores

Question: Which “effectiveness against Pseudomonas” value (Pseudomonas [3]) does the source give for `CC(O)C(=O)O.O=C(O)c1cn(C2CC2)c2cc(N3CCNCC3)c(F)cc2c1=O` [ciprofloxacinlactate] here?
Answer: The value was “effective against Pseudomonas”.

Question: With `NC(N)=NCCS` [mercaptoethylguanidine] as the molecule, how does the “inflammatory response of Pseudomonas infection due to nitric oxide” value (Pseudomonas [4]) read?
Answer: Its value is “inhibit the inflammatory response”.
